Data reported in patent publication US20220195059A1, “Rank Pathway Inhibitors in Combination with CDK Inhibitors” (INSTITUTO DE MEDICINA MOLECULAR JOÃO LOBO ANTUNES, priority 2019, published 2022).

Experiments:
MDA-MB-231 TNBC cells = experiment: Alamar blue viability assay, MDA-MB-231 TNBC cells with or without RANK knockdown; type: cell-based, human; conditions: 7 days
Protocol: For lentiviral transduction, MDA-MB-231GFP+Luc+ cells were seeded in 24-well plates, at a density of 4×10^4 cells/well. 24 hours after seeding, medium was replaced by fresh medium containing 8 μg/ml Polybrene (Sigma) and RANK shRNA (h) lentiviral particles (15-20 μl/well; sc-42960-V, Santa Cruz) or control shRNA lentiviral particles (15-20 μl/well; sc-108080, Santa Cruz). Cells were selected with 0.5 μg/mL Puromycin dihydrochloride (Sigma) starting three days after transduction.
(§1) Cells were seeded in 96 well-plates (2-5×10^4 cells/mL), with or without paclitaxel (Y0000698, Sigma), doxorubicin hydrochloride (D2975000, Sigma), palbociclib (PD 0332991 isethionate, PZ0199, Sigma), ribociclib (LEE011 succinate, SC-488174, Santa Cruz), abemaciclib mesylate (LY2835219, S7158, Selleckchem), fulvestrant (S1191, Selleckchem), everolimus (#73122, StemCell Technologies), full length human OPG (SRP3132, Sigma), and OPG-Fc (Amgen). Medium was replaced every 2 days. After 7 days, 1:10 Alamar blue (Invitrogen) was added to each well and fluorescence was measured 2 hours after incubation (excitation 560 nm; emission 590 nm) in an Infinite M200 microplate reader (Tecan).
RANK KD clones were first generated for use in sensitivity assays. Briefly, MCF-7GFP+Luc+ cells were seeded in multi-well plates and then exposed to fresh medium comprising RANK shRNA (h) lentiviral particles or control shRNA lentiviral particles. The transduced cells were selected using Puromycin dihydrochloride starting three days post-transduction.

[1] = system: TNBC cells (MDA-MB-231, MDA-MB-436, MDA-MB-468, MDA-MB-157, HCC1937, BT-20); experiment: Alamar blue viability assay, TNBC cell lines with or without OPG-Fc; type: cell-based, human; conditions: 7 days
Protocol: as §1
Medium was replaced every two days, and viability was assessed by Alamar blue assay.
Cells were seeded in 96 well-plates (2-5×10^4 cells/mL), with or without palbociclib (PD 0332991 isethionate, PZ0199, Sigma), ribociclib (LEE011 succinate, SC-488174, Santa Cruz), abemaciclib mesylate (LY2835219, S7158, Selleckchem), 3-ATA (sc-202414, Santa Cruz), Cdk4 inhibitor Ill (sc-202988, Santa Cruz), seliciclib (S1153, Selleckchem), and OPG-Fc (PL-33324, Amgen). Medium was replaced every 2 days. After 7 days, 1:10 Alamar blue (Invitrogen) was added to each well and fluorescence was measured 2 hours after incubation (excitation 560 nm; emission 590 nm) in an Infinite M200 microplate reader (Tecan).

[2] = system: cyclin D1, CDK4, CDK6, Cyclin E and CDK2 expression in RANK OE (MCF-7 OE) cells; experiment: Western blot of proteins involved in cyclin/CDKs complexes; type: cell-based, human; conditions: 0, 24 or 72 hours
Protocol: Membranes were blocked for 1 h at room temperature (RT) in 5% Non-Fat Dry Milk (NFDM) in PBS-0.1% Tween (PBST) for β-actin; or in 5% bovine serum albumin (BSA) (Santa Cruz) for other antibodies. […] Proteins were detected using a Novex® ECL HRP chemiluminescent substrate reagent kit (Invitrogen) according to the manufacturer's instructions, and x-ray films (Fujifilm) developed in a Curix 60 processor (AGFA), or the Amersham™ Imager 680 (GE Healthcare Life Sciences). Normalized protein expression was calculated using FIJI software and band densitometry analysis.
Briefly, expression of cyclin D1, CDK4, CDK6, Cyclin E and CDK2 were analyzed by Western blotting cell lysates of RANK OE (MDF-7 OE) cells exposed to palbociclib for 0 hours, 24 hours or 72 hours, and compared to the corresponding expression levels in the parental counterpart cells (expressing low levels of RANK; MCF-7 cells). […]

[3] = system: MDA-MB-231 GFP+Luc+ xenografts; experiment: Pilot study, orthotopic TNBC xenografts; type: in vivo, NSG mice; conditions: measured throughout the experiment; between groups
Protocol: A pilot study to test the sensitivity of TNBC xenografts to CDK4/6 inhibitors (palbociclib) in combination with RANK pathway blockage (OPG-Fc) was performed. […] As shown in this figure, body weight was not different between groups. The proliferation index of tumors as measured by the quantification of Ki67-positive cells and p-pRB positive cells is shown in FIG. 13D. FIG. 13C is a series of images of Ki67-stained or p-pRb stained cells.

CC(=O)c1c(C)c2cnc(Nc3ccc(N4CCNCC4)cn3)nc2n(C2CCCC2)c1=O [palbociclib]
sensitivity to CDK4/6 inhibitor (cell viability) (MDA-MB-231 TNBC cells; MDA-231 cells and MDA-231 shControl cells): resistance
sensitivity to CDK4/6 inhibitor (cell viability) (MDA-MB-231 TNBC cells; TNBC RANK KD cells (MDA-231 shRANK) vs RANK expressing cells): restored sensitivity
sensitivity of TNBC cells to CDK4/6 inhibitor (cell viability) [1]: resistance
CyclinD1, CDK4 and CDK2 expression upon exposure to CDK4/6 inhibitor [2]: increased
body weight [3]: not different
